Reference: ChEMBL document CHEMBL3885861, “Open TG-GATES”

Species: Rattus norvegicus
Experiment: Open TG-GATES - Regimen: Single
Format: toxicity, organism-based, Sprague-Dawley
Parameters: regimen Single, gender Male, age 6 weeks
Conditions: in vivo, po, 1000 mg/kg, route gavage, dose level High; for APTT / Bas / Eos / Fbg / Hb / Lym / MCH / MCHC / MCV / Mono / Neu / PT / Plat / RBC / Ret / WBC / Ht: tissue Blood; for KIDNEY_L / KIDNEY_R / KIDNEY_TOTAL: tissue Kidney; for LIVER: tissue Liver; for ALP / ALT / CRE / DBIL / GLC / IP / K / LDH / Na / PL / RALB / TBIL / TC / TG / TP / gamma-GTP / AST / BUN / Ca: tissue Plasma

Structure (SMILES): O=C(O)c1cn(C2CC2)c2cc(N3CCNCC3)c(F)cc2c1=O [CIPROFLOXACIN]
- TERMINAL_BW (3 h): 182 g
- APTT (3 h): 17 s
- Bas (3 h): 0%
- Eos (3 h): 0.4%
- Fbg (3 h): 215.6 mg/dL
- Hb (3 h): 12.9 g/dL
- Lym (3 h): 80.4%
- MCH (3 h): 21.7 pg
- MCHC (3 h): 33.1%
- MCV (3 h): 65.5 fL
- Mono (3 h): 6.6%
- Neu (3 h): 12.6%
- PT (3 h): 12.6 s
- Plat (3 h): 101.8 x10_4/uL
- RBC (3 h): 592.8 x10_4/ul
- Ret (3 h): 11.2%
- WBC (3 h): 101.3 x10_2/uL
- KIDNEY_L (3 h): 0.8 g
- KIDNEY_R (3 h): 0.8 g
- KIDNEY_TOTAL (3 h): 1.7 g
- LIVER (3 h): 8.6 g
- ALP (3 h): 791 IU/L
- ALT (3 h): 36.8 IU/L
- CRE (3 h): 0.5 mg/dL
- DBIL (3 h): 0.022 mg/dL
- GLC (3 h): 191.2 mg/dL
- IP (3 h): 10.3 mg/dL
- K (3 h): 4.7 meq/L
- LDH (3 h): 132.2 IU/L
- Na (3 h): 139 meq/L
- PL (3 h): 141 mg/dL
- RALB (3 h): 3.8 g/dL
- TBIL (3 h): 0.3 mg/dL
- TC (3 h): 81.2 mg/dL
- TG (3 h): 47 mg/dL
- TP (3 h): 5.6 g/dL
- gamma-GTP (3 h): 1.4 IU/L
- TERMINAL_BW (6 h): 179.7 g
- Bas (6 h): 0%
- Eos (6 h): 0.8%
- Fbg (6 h): 210.4 mg/dL
- Hb (6 h): 12.9 g/dL
- Ht (6 h): 39.1%
- Lym (6 h): 78.2%
- MCHC (6 h): 32.9%
- MCV (6 h): 67.5 fL
- Mono (6 h): 7.6%
- Neu (6 h): 13.8%
- PT (6 h): 12.5 s
- Plat (6 h): 100.8 x10_4/uL
- RBC (6 h): 579.8 x10_4/ul
- Ret (6 h): 10%
- WBC (6 h): 97.6 x10_2/uL
- KIDNEY_L (6 h): 0.8 g
- KIDNEY_R (6 h): 0.8 g
- KIDNEY_TOTAL (6 h): 1.7 g
- LIVER (6 h): 7.9 g
- ALP (6 h): 904.2 IU/L
- AST (6 h): 69.4 IU/L
- BUN (6 h): 10 mg/dL
- CRE (6 h): 0.5 mg/dL
- Ca (6 h): 11.4 mg/dL
- DBIL (6 h): 0.052 mg/dL
- GLC (6 h): 185.8 mg/dL
- IP (6 h): 10.8 mg/dL
- K (6 h): 5.3 meq/L
- LDH (6 h): 140.4 IU/L
- Na (6 h): 138 meq/L
- PL (6 h): 137.2 mg/dL
- RALB (6 h): 3.7 g/dL
- TBIL (6 h): 0.3 mg/dL
- TC (6 h): 79.8 mg/dL
- TP (6 h): 5.5 g/dL
- gamma-GTP (6 h): 1 IU/L
- TERMINAL_BW (9 h): 176.2 g
- APTT (9 h): 16.9 s
- Bas (9 h): 0%
- Eos (9 h): 0.8%
- Fbg (9 h): 223 mg/dL
- Hb (9 h): 13.2 g/dL
- Ht (9 h): 39.9%
- Lym (9 h): 83.6%
- MCH (9 h): 22 pg
- MCHC (9 h): 33%
- MCV (9 h): 66.5 fL
- Mono (9 h): 5.8%
- Neu (9 h): 10%
- PT (9 h): 11.4 s
- Plat (9 h): 104.6 x10_4/uL
- RBC (9 h): 601 x10_4/ul
- WBC (9 h): 94.6 x10_2/uL
- KIDNEY_L (9 h): 0.8 g
- KIDNEY_R (9 h): 0.9 g
- KIDNEY_TOTAL (9 h): 1.7 g
- LIVER (9 h): 7.3 g
- ALP (9 h): 763.8 IU/L
- AST (9 h): 71.4 IU/L
- BUN (9 h): 11 mg/dL
- CRE (9 h): 0.5 mg/dL
- Ca (9 h): 10.8 mg/dL
- DBIL (9 h): 0.08 mg/dL
- GLC (9 h): 192.4 mg/dL
- IP (9 h): 11 mg/dL
- K (9 h): 5.2 meq/L
- LDH (9 h): 168.2 IU/L
- Na (9 h): 139 meq/L
- PL (9 h): 131.4 mg/dL
- RALB (9 h): 3.8 g/dL
- TBIL (9 h): 0.3 mg/dL
- TC (9 h): 78 mg/dL
- TG (9 h): 22.2 mg/dL
- TP (9 h): 5.6 g/dL
- gamma-GTP (9 h): 1.4 IU/L
- TERMINAL_BW (24 h): 193.6 g
- APTT (24 h): 15.4 s
- Bas (24 h): 0%
- Eos (24 h): 0.8%
- Fbg (24 h): 219.4 mg/dL
- Hb (24 h): 13.5 g/dL
- Ht (24 h): 40.1%
- Lym (24 h): 80%
- MCHC (24 h): 33.6%
- Mono (24 h): 6.4%
- Neu (24 h): 12.6%
- PT (24 h): 12.4 s
- Plat (24 h): 106.5 x10_4/uL
- RBC (24 h): 600.2 x10_4/ul
- Ret (24 h): 9.1%
- WBC (24 h): 110.9 x10_2/uL
- KIDNEY_L (24 h): 0.8 g
- KIDNEY_R (24 h): 0.9 g
- KIDNEY_TOTAL (24 h): 1.7 g
- LIVER (24 h): 8.7 g
- ALP (24 h): 1158.6 IU/L
- ALT (24 h): 49 IU/L
- BUN (24 h): 19.2 mg/dL
- CRE (24 h): 0.5 mg/dL
- Ca (24 h): 11.3 mg/dL
- DBIL (24 h): 0.028 mg/dL
- GLC (24 h): 183.8 mg/dL
- IP (24 h): 9.9 mg/dL
- K (24 h): 4.6 meq/L
- LDH (24 h): 177.2 IU/L
- Na (24 h): 140 meq/L
- PL (24 h): 146.4 mg/dL
- RALB (24 h): 4 g/dL
- TBIL (24 h): 0.2 mg/dL
- TC (24 h): 84 mg/dL
- TG (24 h): 51.2 mg/dL
- TP (24 h): 6 g/dL
- gamma-GTP (24 h): 1.2 IU/L
